Source: PubChem BioAssay (NCI)
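Dose response: 5 concentrations. Exposure: 48 h. Format: 96-well plates. Endpoint: linear interpolation; highest concentration if not reached. The concentration for full growth arrest is given as TGI.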

Tests used:
Test in all cases: NCI anticancer screen, dose series, 48 h
[1] = test system: TK-10 renal
[2] = test system: HOP-62 NSCLC
[3] = test system: UACC-257 melanoma
[4] = test system: SR leukemia
[5] = test system: OVCAR-8 ovarian
[6] = test system: U251 CNS
[7] = test system: NCI-H226 lung
[8] = test system: CCRF-CEM leukemia
[9] = test system: EKVX NSCLC
[10] = test system: NCI-H23 lung
[11] = test system: NCI-H522 lung
[12] = test system: SNB-19 CNS
[13] = test system: HOP-92 NSCLC
[14] = test system: SNB-75 CNS
[15] = test system: PC-3 prostate
[16] = test system: OVCAR-3 ovarian
[17] = test system: SN12C renal
[18] = test system: MDA-MB-435
[19] = test system: COLO 205 colon
[20] = test system: MDA-N
[21] = test system: M14 melanoma
[22] = test system: RXF 393 renal
[23] = test system: NCI/ADR-RES ovarian
[24] = test system: SF-268 CNS
[25] = test system: SK-MEL-5 melanoma
[26] = test system: SK-MEL-2 melanoma
[27] = test system: OVCAR-5 ovarian
[28] = test system: HT29 colon
[29] = test system: HCT-116 colon
[30] = test system: SW-620 colon
[31] = test system: K-562 leukemia
[32] = test system: HS 578T breast
[33] = test system: NCI-H460 lung
[34] = test system: MOLT-4 leukemia
[35] = test system: MALME-3M melanoma
[36] = test system: ACHN renal
[37] = test system: IGROV1 ovarian
[38] = test system: DU-145 prostate
[39] = test system: LOX IMVI melanoma
[40] = test system: CAKI-1 renal
[41] = test system: UO-31 renal
[42] = test system: SK-OV-3 ovarian
[43] = test system: SK-MEL-28 melanoma
[44] = test system: SF-295 CNS
[45] = test system: A549 NSCLC
[46] = test system: UACC-62 melanoma
[47] = test system: BT-549 breast
[48] = test system: HCT-15 colon
[49] = test system: KM12 colon
[50] = test system: HCC-2998 colon
[51] = test system: 786-0 renal
[52] = test system: MCF7 breast
[53] = test system: HL-60(TB) leukemia
[54] = test system: OVCAR-4 ovarian
[55] = test system: RPMI-8226 leukemia
[56] = test system: MDA-MB-231 breast
[57] = test system: A498 renal

SMILES: C[C@H](N)C(=O)Nc1ccc(-c2nc3ccccc3s2)cc1Cl
- TGI [1]: 14.7 µM
- TGI [2]: 26 µM
- TGI [3]: 34.4 µM
- TGI [4]: 13.9 µM
- TGI [5]: > 100 µM
- TGI [6]: 29.1 µM
- TGI [7]: 11.2 µM
- TGI [8]: 29.3 µM
- TGI [9]: 26.7 µM
- TGI [10]: 39.2 µM
- TGI [11]: 46 µM
- TGI [12]: 30.4 µM
- TGI [13]: > 100 µM
- TGI [14]: 34.8 µM
- TGI [15]: 27.3 µM
- TGI [16]: 19.2 µM
- TGI [17]: 30 µM
- TGI [18]: 28.7 µM
- TGI [19]: 26.4 µM
- TGI [20]: 26.3 µM
- TGI [21]: 19 µM
- TGI [22]: 30.2 µM
- TGI [23]: > 100 µM
- TGI [24]: 43.7 µM
- TGI [25]: 29.9 µM
- TGI [26]: 30.5 µM
- TGI [27]: 14.9 µM
- TGI [28]: 32.8 µM
- TGI [29]: 24.5 µM
- TGI [30]: 29.4 µM
- TGI [31]: 36.8 µM
- TGI [32]: 49.7 µM
- TGI [33]: 26.2 µM
- TGI [34]: 40 µM
- TGI [35]: 41.4 µM
- TGI [36]: 29 µM
- TGI [37]: > 100 µM
- TGI [38]: 32.1 µM
- TGI [39]: > 100 µM
- TGI [40]: 23.2 µM
- TGI [41]: 22.9 µM
- TGI [42]: 32.7 µM
- TGI [43]: 27.7 µM
- TGI [44]: 33.9 µM
- TGI [45]: 27.6 µM
- TGI [46]: 31.1 µM
- TGI [47]: 36 µM
- TGI [48]: 62.4 µM
- TGI [49]: 33.6 µM
- TGI [50]: 17.9 µM
- TGI [51]: 25.7 µM

SMILES: CC(=O)Nc1ccc2cc3c(nc2n1)c1cccnc1n3S(=O)(=O)c1ccccc1
- TGI [1]: > 100 µM
- TGI [2]: > 100 µM
- TGI [3]: > 100 µM
- TGI [4]: > 100 µM
- TGI [5]: > 100 µM
- TGI [52]: > 100 µM
- TGI [6]: > 100 µM
- TGI [7]: > 100 µM
- TGI [8]: > 100 µM
- TGI [9]: > 100 µM
- TGI [10]: > 100 µM
- TGI [11]: > 100 µM
- TGI [12]: > 100 µM
- TGI [13]: > 100 µM
- TGI [14]: > 100 µM
- TGI [15]: > 100 µM
- TGI [16]: > 100 µM
- TGI [17]: > 100 µM
- TGI [18]: > 100 µM
- TGI [19]: > 100 µM
- TGI [20]: > 100 µM
- TGI [21]: > 100 µM
- TGI [22]: > 100 µM
- TGI [23]: > 100 µM
- TGI [24]: > 100 µM
- TGI [25]: > 100 µM
- TGI [26]: > 100 µM
- TGI [27]: > 100 µM
- TGI [28]: > 100 µM
- TGI [29]: > 100 µM
- TGI [30]: > 100 µM
- TGI [31]: > 100 µM
- TGI [32]: > 100 µM
- TGI [53]: > 100 µM
- TGI [33]: > 100 µM
- TGI [34]: > 100 µM
- TGI [54]: > 100 µM
- TGI [35]: > 100 µM
- TGI [55]: > 100 µM
- TGI [36]: > 100 µM
- TGI [37]: > 100 µM
- TGI [39]: > 100 µM
- TGI [56]: > 100 µM
- TGI [40]: > 100 µM
- TGI [41]: > 100 µM
- TGI [42]: > 100 µM
- TGI [43]: > 100 µM
- TGI [44]: > 100 µM
- TGI [57]: > 100 µM
- TGI [45]: > 100 µM
- TGI [46]: > 100 µM
- TGI [47]: > 100 µM
- TGI [48]: > 100 µM
- TGI [49]: > 100 µM
- TGI [50]: > 100 µM
- TGI [51]: > 100 µM
